Source: patent US20250179057A1, “MEK IMMUNE ONCOLOGY INHIBITORS AND THERAPEUTIC USES THEREOF” (Immuneering Corporation, priority 2022, published 2025)
In brackets after ≈: the same amount, converted by molar mass. Counter-ions that a name gives are not always drawn. Like-named read-outs stand apart in the source and are kept apart here.

Assays:
[1] = PAMPA (pH 7.4); format: in vitro ADME; settings: PAMPA
[2] = Kinetic solubility (PBS pH 7.4; 4 hr); format: physicochemical; settings: PBS buffer, kinetic from dmso stock
Experimental: The plates were shaken for 4 h at room temperature in an Eppendorf Thermomixer. After incubation, the plates were centrifuged for 20 minutes at 4680 rpm. From the supernatant, 150 μL was transferred to a new 96 well plate and 50 μL DMSO was added to ensure continued dissolution. Samples were measured on LC-UV at injection volumes of 1 and 8 μL. Peak areas were determined and compared to peak areas obtained using calibration curves of the test compounds in DMSO.

[3] = Hepatocyte stability, human; format: in vitro ADME; settings: 0.5 million cells/ml; for half-life at 2 μM: human hepatocytes, 120 min; for CLint scaled at 2 μM: human, hepatocytes
Experimental: (§1) In this study, human, cynomolgus monkey, beagle dog, wistar hannover rat, and balb/c mouse hepatocyle stability was determined.

[4] = Caco-2 bidirectional permeability (absorption & efflux); settings: human
[5] = Plasma stability, rat plasma (Wistar Han / wistar hannover; Table 5 head SD Rat); format: in vitro ADME; settings: wistar hannover rat plasma, 2 μM, anti-coagulant K2-EDTA; for half-life at 2 μM: pH 7.4, read-out: T1/2; for % Remaining at T120: 120 min
Experimental: Individual stock solutions of propantheline and lovastatin were prepared at 10 mM in DMSO and were further diluted to 2 mM with DMSO.
Frozen matrices (Balb/c mouse, Wistar Han rat, Beagle dog, and human plasma containing K2EDTA as anti-coagulant) were thawed and centrifuged at 3100 rpm for 10 minutes at 4° C. to remove particulates. The lipid layer was then removed, and the supernatant was transferred to a new tube without disturbing the pellet. After the matrices were incubated at 37° C. for at least 10 minutes, the pH of each matrix was adjusted to pH 7.4, using 10% phosphoric acid or 1N sodium hydroxide as necessary. Test and control article stock solutions were spiked (2 μL) into matrix (1.998 mL) and mixed to final assay concentration of […]. Duplicate 30-μL aliquots of spiked plasma were transferred to matrix tubes in 96-well plate immediately after spiking for timepoints of 0, 30, 60, 120, 240, and 360 minutes. These tubes were then incubated at 37° C. with shaking and at each timepoint, the corresponding tubes containing samples were quenched with 180 μL of cold acetonitrile containing the internal standards. The quenched samples were vortex-mixed briefly and stored refrigerated. After the final time point (360 minutes), the plates with all quenched samples were vortex-mixed for 10 minutes and then centrifuged at 3100 rpm for 10 minutes at 4° C. to sediment the precipitated protein. The supernatant (50 μL) was transferred to a clean 96-well plate and diluted with 100 μL of water. The plates were stored refrigerated until analysis.
Data Analysis: Peak area ratios for IS-normalized test article and control article counts were used to calculate the percent remaining relative to the time zero (T0) value. As appropriate, results were plotted and further analyzed to calculate half-life (T1/2) values.
Mean peak area ratios were used to calculate the % remaining relative to the T0 value:
In this study, human, cynomolgus monkey, beagle dog, wistar hannover rat, and balb/c plasma stability was determined. Table 28 describes the results of the human plasma stability at 2 μM concentration and anti-coagulant K2-EDTA from 10 to 120 min. Table 29 describes the results of the cynomolgus monkey plasma stability at 2 μM concentration and anti-coagulant K2-EDTA. Table 30 describes the results of the beagle dog plasma stability at 2 μM concentration and anti-coagulant K2-EDTA. Table 31 describes the results of the wistar hannover rat plasma stability at 2 μM concentration and anti-coagulant K2-EDTA. Table 32 describes the results of the balb/c plasma stability at 2 μM concentration and anti-coagulant K2-EDTA.

[6] = Hepatocyte stability, balb/c mouse; format: in vitro ADME; settings: 0.5 million cells/ml; for CLint scaled at 2 μM: BALB/c, mouse, hepatocytes; for half-life at 2 μM: balb/c mouse hepatocytes
Experimental: as §1

[7] = tested on: wistar hannover rat hepatocytes; assay: Hepatocyte stability, wistar hannover rat; format: in vitro ADME; settings: 2 μM, 0.5 million cells/ml
Experimental: as §1

[8] = target: CYP3A4 (Homo sapiens, UniProt P08684); assay: CYP450 panel inhibition in human liver microsomes, 3A4 (midazolam / testosterone); settings: 10 μM, substrate testosterone
[9] = tested on: cynomolgus monkey hepatocytes; assay: Hepatocyte stability, cynomolgus monkey; format: in vitro ADME; settings: 2 μM, 0.5 million cells/ml
Experimental: as §1

[10] = tested on: beagle dog hepatocytes; assay: Hepatocyte stability, beagle dog; format: in vitro ADME; settings: 2 μM, 0.5 million cells/ml
Experimental: as §1

[11] = read-out: CLint (L/hr/kg) (converted)
[12] = pH 7.4, aqueous buffer, free base (Table 19), read-out: Kinetic Solubility

Sequence of CYP3A4 (P08684 whole entry): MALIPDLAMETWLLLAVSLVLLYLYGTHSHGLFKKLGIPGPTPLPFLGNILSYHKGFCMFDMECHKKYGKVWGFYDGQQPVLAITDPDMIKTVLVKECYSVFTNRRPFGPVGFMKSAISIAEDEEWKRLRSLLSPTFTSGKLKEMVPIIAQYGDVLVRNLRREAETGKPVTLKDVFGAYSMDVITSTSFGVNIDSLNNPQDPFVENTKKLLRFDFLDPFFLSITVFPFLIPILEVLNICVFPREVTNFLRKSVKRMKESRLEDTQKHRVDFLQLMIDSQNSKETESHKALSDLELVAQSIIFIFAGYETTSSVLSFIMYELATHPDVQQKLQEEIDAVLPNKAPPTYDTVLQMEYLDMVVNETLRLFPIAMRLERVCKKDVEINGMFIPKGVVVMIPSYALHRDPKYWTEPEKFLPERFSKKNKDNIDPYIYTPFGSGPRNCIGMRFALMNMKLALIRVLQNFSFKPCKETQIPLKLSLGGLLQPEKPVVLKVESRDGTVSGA

Structure (SMILES) | Papp at 4 h, 50 μM ([1]; pH = 7.4) | solubility kinetic at 4 h ([2]; aqueous buffer, PBS pH = 7.4, 4 hr (Table 7), read-out: Kinetic Solubility (PBS pH = 7.4; 4 hr)) | half-life at 2 μM [3] | CLint scaled at 2 μM [3, 11] | CLint scaled at 2 μM ([3]; read-out: CLint (mL/min/kg)) | Papp A→B at 2 h, 10 μM [4] | Papp B→A at 2 h, 10 μM [4] | efflux ratio at 2 h, 10 μM [4] | Papp at 4 h, 50 μM ([1]; pH = 7.4 (Table 14)) | half-life at 2 μM [5] | % Remaining at T120 [5] | CLint scaled at 2 μM [6, 11] | CLint scaled at 2 μM ([6]; read-out: CLint (mL/min/kg)) | half-life at 2 μM [6] | % Remaining At T120 [7] | CYP-3A4 (Testosterone) mean percentage CYP inhibition [8] | solubility kinetic at 4 h [2, 12] | % Remaining At T120 [9] | % Remaining At T120 [10]
Cn1cnc2c(F)c(Nc3ccc(Br)cc3Cl)c(C(=O)NOCCO)cc21 [Reference-1, Selumetinib] | 29 ×10⁻⁶ cm/s | 36 µM (≈ 16.5 µg/mL) |  |  |  |  |  |  |  |  |  |  |  |  |  |  |  |  | 
CNS(=O)(=O)Nc1cccc(Cc2c(CN3CCNCC3)c3cc(Cl)c(OC(=O)N(C)C)cc3oc2=O)c1Cl [Compound 256, 6-chloro-3-(2-chloro-3-((N-methylsulfamoyl)amino)benzyl)-2-oxo-4-(piperazin-1-ylmethyl)-2H-chromen-7-yl dimethylcarbamate hydrochloride] |  |  | 15.4 h | 0.242 L/h/kg | 0.242 L/h/kg | 3.59 ×10⁻⁶ cm/s | 13.4 ×10⁻⁶ cm/s | 3.73 | 4 ×10⁻⁶ cm/s | 179 h | 97.2% | 4.98 L/h/kg | 4.98 L/h/kg | 3.28 h | 45.7% | 69.2% | > 80 µM | 53.9% | 62.8%
CCS(=O)(=O)Nc1cccc(Cc2c(CN3CCNCC3)c3cc(Cl)c(OC(=O)N(C)C)cc3oc2=O)c1Cl [Compound 257, 6-chloro-3-(2-chloro-3-(ethylsulfonamido)benzyl)-2-oxo-4-(piperazin-1-ylmethyl)-2H-chromen-7-yl dimethylcarbamate hydrochloride] |  |  | 12 h | 0.312 L/h/kg | 0.313 L/h/kg | 4.08 ×10⁻⁶ cm/s | 22.1 ×10⁻⁶ cm/s | 5.41 | 8 ×10⁻⁶ cm/s | 16.9 h | 91.5% | 4.78 L/h/kg | 4.78 L/h/kg | 3.43 h | 45.4% | 66.0% | > 80 µM | 62.8% | 47.8%
CNS(=O)(=O)Nc1nccc(Cc2c(C)c3ccc(Oc4ncccn4)cc3oc2=O)c1F [Reference-2, reference compound] | 29 ×10⁻⁶ cm/s |  |  |  |  |  |  |  |  |  |  |  |  |  |  |  |  |  | 
